Here are results for one compound from patent US20100204140A1, “USE OF A PEPTIDE AS A THERAPEUTIC AGENT” (priority 2007, published 2010).

In this experiment the test system is drug-resistant Mycobacterium tuberculosis. As to conditions: peptide 10 micrograms per ml, seven days.

Structures are written as SMILES.

Broadly, the % inhibition is the share of the control response that was lost under treatment. A low value points to a weak effect. In the case of `CSCC[C@H](NC(=O)[C@H](CC(C)C)NC(=O)CNC(=O)[C@@H](NC(=O)[C@H](Cc1ccccc1)NC(=O)[C@H](Cc1ccccc1)NC(=O)[C@H](CC(=O)O)NC(=O)[C@H](Cc1c[nH]cn1)NC(=O)[C@H](CCSC)NC(=O)[C@@H](N)CC(=O)O)C(C)C)C(N)=O` [Neurokinin B], the “% inhibition” value is reported as 0.0%.
